Where two headings read alike, the source gives them in different places.
Assays:
P. berghei = system: P. berghei; design: method as in PMID 30033538; settings: 100 mg/kg, in vivo; cited from earlier work
[1] = MTT cytotoxicity assay on NHDF cells; type: cell-based; settings: human, NHDF cells (normal human dermal fibroblasts)
Experimental: NHDF cells were grown in alpha-MEM medium supplemented likewise with 10% FBS, L-glutamine, and antibiotic-antimycotic. Cultures were maintained at 37°C, in a humidified Innova CO-180 incubator (New Brunswick Scientific, Edison, NJ, USA) in an atmosphere containing 5% CO2. The cytotoxic effects of CA derivatives were evaluated as described in literature using the standard MTT assay. Briefly, NHDF cells were seeded in a 96-well plate at a density of 5 × 10^3 cells per well in an alpha-MEM medium. Cells were grown overnight and subsequently exposed to the different concentrations of tested compounds dissolved in DMSO. An equivalent volume of DMSO was used as a negative control. After 72 h of incubation, media containing the test compounds were removed, the cells were washed with sterile PBS, and 50 μL of MTT solution (0.5 mg/mL stock solution was 10 times diluted in the appropriate culture medium) was added to each well for 3 h at 37°C. Subsequently, the MTT solution was removed, the formazan crystals were solubilized in DMSO, and absorbance was recorded using an Asys UVM 340 multiwell plate reader (Cambridge, UK) at 560 nm with a reference wavelength of 670 nm. The % of cell viability was calculated using the following formula: Cell viability (%) = (AT/AC) × 100, where AT is the absorbance of the treatment well (treated cells) and AC is the absorbance of the control well (not treated cells). GraphPad Prism software for Windows (GraphPad Software, La Jolla, CA, USA) was used to calculate IC50 values.

[2] = system: P. falciparum W2 (CQ-resistant) strain; assay: P. falciparum drug susceptibility assay (pLDH), CQ-resistant strain W2; type: cell-based; settings: for SIW2: IC50(NHDF)/IC50(W2); for IC50: Plasmodium falciparum, read-out: P. falciparum IC50 W2
Experimental: (§1) P. falciparum cultures were prepared and maintained according to the method of Trager and Jensen, with slight modifications. […] Serial dilutions of the compounds were prepared in 96-well flat-bottomed microplates. […] Parasite growth was determined spectrophotometrically (OD650) by measuring the activity of parasite lactate dehydrogenase (pLDH), according to a modified version of the method of Makler and Hinrichs, in control and compound-treated cultures.

[3] = Hemolytic activity against human erythrocytes; type: cell-based; settings: freshly isolated human red blood cells (erythrocytes), PBS, 37°C
Experimental: Hemolytic activity was measured as described by Jaromin et al. Compounds 3 and 4, dissolved in DMSO, were added in a volume corresponding to a final concentration of 12.5 μM and then incubated with freshly isolated human red blood cells in PBS buffer at 37°C for 30 min. After centrifugation, the absorbance was determined at 540 nm, to assess the released hemoglobin. In addition, negative (erythrocytes in PBS buffer), positive (erythrocytes in distilled water), and DMSO controls were also performed. The study protocol was approved by the Bioethics Commission at the Lower Silesian Medical Chamber (1/PNHAB/2018).

[4] = system: P. falciparum D10 (CQ-sensitive) strain; assay: P. falciparum drug susceptibility assay (pLDH), CQ-sensitive strain D10; type: cell-based; settings: for SID10: IC50(NHDF)/IC50(D10); for IC50: Plasmodium falciparum
Experimental: as §1

[5] = system: NHDF cells (normal human dermal fibroblasts); settings: read-out: Cytotoxicity IC50, MTT; cited from earlier work
[6] = W2 CQ-resistant strain, 72 h, pLDH, mean ± SD
[7] = D10 CQ-sensitive strain, 72 h, pLDH, mean ± SD, read-out: P. falciparum IC50 D10
[8] = strain not given (D10 and/or W2), read-out: P. falciparum IC50

melting point [°C]	fold decrease of IC50 versus compound 1 ([2]; CQ-resistant strain, 4 compared with 1) [times]	IC50 [2, 6] [µM]	IC50 [4, 7] [µM]	IC50 [4, 8] [µM]	Structure (SMILES)	P. berghei inhibition growth (P. berghei) [%]	IC50 at 72 h [1] [µM]	SIW2 [2]	hemolysis at 30 min, 12.5 µM [3] [%]	SID10 [4]	IC50 ([2]; W2, 72 h) [µM]	IC50 ([4]; D10, 72 h, read-out: P. falciparum IC50 D10) [µM]	IC50 [5] [µM]	RI (resistance index) ([2]; ratio IC50 W2 / IC50 D10)
					CCOC(=O)/C=C/c1ccc(O)c(O)c1 [Ethyl caffeate]	55								
175	7.9	11 ± 4.88	12.2 ± 4.9	11 to 12.7	CC(C)(C)OC(=O)/C=C/c1ccc(O)c(O)c1O [Compound 4, tert-Butyl (2E)-3-(2,3,4-Trihydroxyphenyl)-propenoate]		90.3 ± 10.3	8.24	52.9 ± 2.93	7.42				
88.3		117 ± 35.9	129 ± 59.6	145	CC(C)(C)OC(=O)/C=C/c1ccc(O)c(F)c1 [Compound 6, tert-Butyl (2E)-3-(3-Fluoro-4-hydroxyphenyl)-propenoate]		229 ± 7.57	1.95		1.77				
		131 ± 52.7	145 ± 53.6	117	CCOC(=O)/C(C)=C/c1ccc(O)c(F)c1 [Compound 5, Ethyl (2E)-3-(3-Fluoro-4-hydroxyphenyl)-2-methylpropenoate]									
					CCN(CC)CCCC(C)Nc1ccnc2cc(Cl)ccc12 (centres unmarked) [CQ, chloroquine, reference compound]			178.04		2047.5	0.23 ± 0.08	0.02 ± 0.01	41 ± 2.29	
		> 278	> 278		O=C(O)/C=C/c1ccc(O)c(O)c1 [CA, (E)-3-(3,4-dihydroxyphenyl)prop-2-enoic acid, reference compound]									
172 to 173		38.8 ± 17.8	42.1 ± 9.12		CCOC(=O)/C=C/c1ccc(O)c(O)c1O [Compound 2, Ethyl (2E)-3-(2,3,4-Trihydroxyphenyl)-propenoate]		115 ± 1.76	2.98		2.74				
140		11.3 ± 4.81	12.7 ± 2.33	11 to 12.7	CCOC(=O)/C(C)=C/c1ccc(O)c(O)c1O [Compound 3, Ethyl (2E)-3-(2,3,4-Trihydroxyphenyl)-2-methylpropenoate]		79.2 ± 6.14	7.02	4.13 ± 0.85	6.23				

Structure (SMILES)	melting point [°C]	fold decrease of IC50 versus compound 1 ([2]; CQ-resistant strain, 4 compared with 1) [times]	IC50 [2, 6] [µM]	IC50 [4, 7] [µM]	IC50 [4, 8] [µM]	P. berghei inhibition growth (P. berghei) [%]	IC50 at 72 h [1] [µM]	SIW2 [2]	hemolysis at 30 min, 12.5 µM [3] [%]	SID10 [4]	IC50 ([2]; W2, 72 h) [µM]	IC50 ([4]; D10, 72 h, read-out: P. falciparum IC50 D10) [µM]	IC50 [5] [µM]	RI (resistance index) ([2]; ratio IC50 W2 / IC50 D10)
CC(C)(C)OC(=O)/C=C/c1ccc(O)cc1O [Compound 1, tert-Butyl (2E)-3-(2,4-Dihydroxyphenyl)-propenoate]			86.4 ± 27.4	28.6 ± 1.94			249.8 ± 0.51	2.89		8.73				3.02

Source: PMC10691883, “Efficient One-Pot Synthesis of Novel Caffeic Acid Derivatives as Potential Antimalarials” (Journal of Parasitology Research, 2023)
